In US9255101B2 (BIOPROJECT, priority 2012, dated 2016):
Where a name gives a salt, the structure may show the parent alone.

Assays:
human H4 receptor [1] = molecular target: T1, human H4 receptor (Homo sapiens, UniProt Q9H3N8); assay: biochemical
human H4 receptor [2] = molecular target: T1, human H4 receptor; assay: biochemical; remark: listed apart in the source
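Wherever IC50 is given: membranes from SH-SY5Y cells with stable human H4 receptor expression, incubated with GDP 10 µM, radioactivity retained on filters counted by liquid scintillation.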
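Wherever Ki is given: radioligand displacement of a [3H]-labelled ligand from membranes of CHO cells stably expressing human H4 receptor, bound radioactivity counted on filters by liquid scintillation.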

melting point [°C]	Ki (human H4 receptor [1]) [nM]	IC50 (human H4 receptor [2]) [nM]	Structure (SMILES)
68	< 1000	–	CN1CCC(OC2c3cccc(OCc4ccccc4)c3CCn3cc(-c4ccccc4)nc32)CC1 (centres unmarked) [Example 248, 8-benzyloxy-4-(1-methylpiperidin-4-yloxy)-2-phenyl-9,10-dihydro-4H-3,10a-diaza-benzo[f]azulene]
214	< 300	–	Cc1c(-c2ccc(N3CCOC3=O)cc2)nc2n1CCc1ccccc1C2OC1CCN(C)CC1 (centres unmarked) [Example 131, 3-{4-[1-methyl-4-(1-methylpiperidin-4-yloxy)-9,10-dihydro-4H-3,10a-diaza-benzo[f]azulen-2-yl]-phenyl}-oxazolidin-2-one]
92	< 300	–	CN1CCC(OC2c3ccc(Br)cc3CCn3cc(-c4ccccc4)nc32)CC1 (centres unmarked) [Example 261, 7-bromo-4-(1-methylpiperidin-4-yloxy)-2-phenyl-9,10-dihydro-4H-3,10a-diaza-benzo[f]azulene]
73	< 1000	–	COc1cccc2c1CCn1cc(-c3ccccc3)nc1C2OC1CCN(C)CC1 (centres unmarked) [Example 245, 8-methoxy-4-(1-methylpiperidin-4-yloxy)-2-phenyl-9,10-dihydro-4H-3,10a-diaza-benzo[f]azulene]
126	< 300	–	CN1CCC(OC2c3ccccc3CCn3cc(I)nc32)CC1 (centres unmarked) [Example 2, 2-iodo-4-(1-methylpiperidin-4-yloxy)-9,10-dihydro-4H-3,10a-diaza-benzo[f]azulene]
197	< 1000	–	CN1CCC(OC2c3ccccc3CCn3cc(-c4ccc(N)cc4)nc32)CC1 (centres unmarked) [Example 16, 4-[4-(1-methylpiperidin-4-yloxy)-9,10-dihydro-4H-3,10a-diaza-benzo[f]azulen-2-yl]-phenylamine]
70	< 300	–	C=C(C)Cc1nc2n(c1CC(=C)C)CCc1ccccc1C2OC1CCN(C)CC1.O=C(O)C(=O)O.O=C(O)C(=O)O (centres unmarked) [Example 267, 1,2-bis-(2-methylallyl)-4-(1-methylpiperidin-4-yloxy)-9,10-dihydro-4H-3,10a-diaza-benzo[f]azulene dioxalate]
95	< 300	–	CN1CCC(OC2c3cccc(-c4ccc(F)cc4)c3CCn3cc(-c4ccccc4)nc32)CC1 (centres unmarked) [Example 240, 8-(4-fluorophenyl)-4-(1-methylpiperidin-4-yloxy)-2-phenyl-9,10-dihydro-4H-3,10a-diaza-benzo[f]azulene]
134	< 1000	–	CSc1cccc2c1CCn1cc(-c3ccccc3)nc1C2OC1CCN(C)CC1 (centres unmarked) [Example 234, 4-(1-methylpiperidin-4-yloxy)-8-methylsulfanyl-2-phenyl-9,10-dihydro-4H-3,10a-diaza-benzo[f]azulene]
100	< 1000	–	CN1CC(COC2c3ccccc3CCn3cc(I)nc32)C1 (centres unmarked) [Example 7, 2-Iodo-4-(1-methylazetidin-3-ylmethoxy)-9,10-dihydro-4H-3,10a-diaza-benzo[f]azulene]
161	–	–	Cc1c(C(=O)NCc2ccccc2)nc2n1CCc1ccccc1C2OC1CCN(C)CC1 (centres unmarked) [Example 222, 1-methyl-4-(1-methylpiperidin-4-yloxy)-9,10-dihydro-4H-3,10a-diaza-benzo[f]azulene-2-carboxylic acid benzylamide]
–	< 300	< 300	CN1CCC(OC2c3ccccc3CCn3cc(-c4ccsc4)nc32)CC1 (centres unmarked) [Example 12, 4-(1-methylpiperidin-4-yloxy)-2-thiophen-3-yl-9,10-dihydro-4H-3,10a-diaza-benzo[f]azulene]
–	< 300	< 300	CN1CCC(OC2c3ccccc3CCn3cc(-c4ccccc4F)nc32)CC1 (centres unmarked) [Example 27, 2-(2-fluorophenyl)-4-(1-methylpiperidin-4-yloxy)-9,10-dihydro-4H-3,10a-diaza-benzo[f]azulene]
–	< 30	< 30	CN1CCC(OC2c3ccccc3CCn3cc(C=Cc4ccsc4)nc32)CC1 (centres unmarked) [Example 112, 4-(1-methylpiperidin-4-yloxy)-2-(2-thiophen-3-ylvinyl)-9,10-dihydro-4H-3,10a-diaza-benzo[f]azulene]
–	< 30	< 1000	CN1CCC(OC2c3ccccc3CCn3cc(-c4ccc5c(c4)OCO5)nc32)CC1 (centres unmarked) [Example 50, 2-benzo[1,3]dioxol-5-yl-4-(1-methylpiperidin-4-yloxy)-9,10-dihydro-4H-3,10a-diaza-benzo[f]azulene]
–	< 30	< 30	Cc1c(-c2ccc(C=CS(C)(=O)=O)cc2)nc2n1CCc1ccccc1C2OC1CCN(C)CC1 (centres unmarked) [Example 158, 2-[4-(2-methanesulfonyl-vinyl)-phenyl]-1-methyl-4-(1-methylpiperidin-4-yloxy)-9,10-dihydro-4H-3,10a-diaza-benzo[f]azulene]

melting point [°C]	Ki (human H4 receptor [1]) [nM]	IC50 (human H4 receptor [2]) [nM]	Structure (SMILES)
–	< 30	< 300	CN1CCC(OC2c3ccccc3CCn3cc(-c4ccc(C(F)F)cc4)nc32)CC1 (centres unmarked) [Example 69, 2-(4-difluoromethylphenyl)-4-(1-methylpiperidin-4-yloxy)-9,10-dihydro-4H-3,10a-diaza-benzo[f]azulene]
–	< 30	< 300	Cc1c(-c2ccc(N3CCN(C(C)(C)C)C3=O)cc2)nc2n1CCc1ccccc1C2OC1CCN(C)CC1 (centres unmarked) [Example 140, 1-tert-butyl-3-{4-[1-methyl-4-(1-methylpiperidin-4-yloxy)-9,10-dihydro-4H-3,10a-diaza-benzo[f]azulen-2-yl]-phenyl}-imidazolidin-2-one]
–	< 30	< 30	CN1CCC(OC2c3ccccc3CCn3c2nc(CCCCCc2ccccc2)c3Cl)CC1 (centres unmarked) [Example 139, 1-chloro-4-(1-methylpiperidin-4-yloxy)-2-(5-phenylpentyl)-9,10-dihydro-4H-3,10a-diaza-benzo[f]azulene oxalate]
–	< 300	< 30	CN1CCC(OC2c3ccccc3CCn3cc(-c4ccc(C(=O)C(F)(F)F)cc4)nc32)CC1 (centres unmarked) [Example 31, 2,2,2-trifluoro-1-{4-[4-(1-methylpiperidin-4-yloxy)-9,10-dihydro-4H-3,10a-diaza-benzo[f]azulen-2-yl]-phenyl}-ethanone oxalate]
–	< 300	< 300	CN1CCC(OC2c3ccccc3CCn3cc(-c4cccs4)nc32)CC1 (centres unmarked) [Example 47, 4-(1-methylpiperidin-4-yloxy)-2-thiophen-2-yl-9,10-dihydro-4H-3,10a-diaza-benzo[f]azulene oxalate]
–	< 30	< 300	CN1CCC(OC2c3ccccc3CCn3cc(C4=CCCCCC4)nc32)CC1 (centres unmarked) [Example 80, 2-cyclohept-1-enyl-4-(1-methylpiperidin-4-yloxy)-9,10-dihydro-4H-3,10a-diaza-benzo[f]azulene]
–	< 300	< 300	CN1CCC(OC2c3ccccc3CCn3cc(SCc4ccccc4)nc32)CC1 (centres unmarked) [Example 67, 2-benzylsulfanyl-4-(1-methylpiperidin-4-yloxy)-9,10-dihydro-4H-3,10a-diaza-benzo[f]azulene oxalate]
–	< 30	< 30	CN1CCC(OC2c3ccccc3CCn3cc(C#CCNC(=O)OC(C)(C)C)nc32)CC1 (centres unmarked) [Example 72, {3-[4-(1-methylpiperidin-4-yloxy)-9,10-dihydro-4H-3,10a-diaza-benzo[f]azulen-2-yl]-prop-2-ynyl}-carbamic acid tert-butyl ester]
–	< 30	< 300	CN1CCC(OC2c3ccccc3CCn3cc(-c4cccc(F)c4)nc32)CC1 (centres unmarked) [Example 68, 2-(3-fluorophenyl)-4-(1-methylpiperidin-4-yloxy)-9,10-dihydro-4H-3,10a-diaza-benzo[f]azulene oxalate]
–	< 30	< 30	Cc1c(-c2ccccc2)nc2n1CCc1ccccc1C2OC1CCN(C)CC1 (single isomer, unassigned) [Example 135B, 1-methyl-4-(1-methyl-piperidin-4-yloxy)-2-phenyl-9,10-dihydro-4H-3,10a-diaza-benzo[f]azulene]
–	< 30	< 30	CCSc1ccc(-c2cn3c(n2)C(OC2CCN(C)CC2)c2ccccc2CC3)cc1 (centres unmarked) [Example 46, 2-(4-ethylsulfanylphenyl)-4-(1-methylpiperidin-4-yloxy)-9,10-dihydro-4H-3,10a-diaza-benzo[f]azulene oxalate]
–	< 30	< 30	CN1CCC(OC2c3ccccc3CCn3cc(CCCc4ccccc4)nc32)CC1 (centres unmarked) [Example 87, 4-(1-methylpiperidin-4-yloxy)-2-(3-phenylpropyl)-9,10-dihydro-4H-3,10a-diaza-benzo[f]azulene oxalate]
–	< 300	< 300	CN1CCC(OC2c3ccccc3CCn3cc(-c4ccc(S(=O)(=O)N(C)C)cc4)nc32)CC1 (centres unmarked) [Example 29, N,N-dimethyl-4-[4-(1-methylpiperidin-4-yloxy)-9,10-dihydro-4H-3,10a-diaza-benzo[f]azulen-2-yl]-benzenesulfonamide]
–	< 30	< 30	Cc1c(-c2ccc(SCc3ccccc3)cc2)nc2n1CCc1ccccc1C2OC1CCN(C)CC1 (centres unmarked) [Example 164, 2-(4-benzylsulfanylphenyl)-1-methyl-4-(1-methylpiperidin-4-yloxy)-9,10-dihydro-4H-3,10a-diaza-benzo[f]azulene oxalate]
–	< 300	< 300	CN1CCC(OC2c3ccccc3CCn3cc(C4=CCCCC4)nc32)CC1 (centres unmarked) [Example 62, 2-cyclohex-1-enyl-4-(1-methylpiperidin-4-yloxy)-9,10-dihydro-4H-3,10a-diaza-benzo[f]azulene oxalate]
–	< 30	< 30	CN1CCC(OC2c3ccccc3CCn3cc(SCCc4ccccc4)nc32)CC1 (centres unmarked) [Example 119, 4-(1-methylpiperidin-4-yloxy)-2-phenethylsulfanyl-9,10-dihydro-4H-3,10a-diaza-benzo[f]azulene]

Structure (SMILES)	melting point [°C]	Ki (human H4 receptor [1]) [nM]	IC50 (human H4 receptor [2]) [nM]
CN1CCC(OC2c3ccccc3CCn3cc(C4=CCN(C(=O)OC(C)(C)C)CC4)nc32)CC1 (centres unmarked) [Example 74, 4-[4-(1-methylpiperidin-4-yloxy)-9,10-dihydro-4H-3,10a-diaza-benzo[f]azulen-2-yl]-3,6-dihydro-2H-pyridine-1-carboxylic acid tert-butyl ester oxalate]	–	< 300	< 300
